From patent US4613602A, “Ranitidine derivative useful in the treatment of ulcer” (Magis Farmaceutici s.r.l., priority 1984, dated 1986)

Columns and labels:
[1] = Acute toxicity (LD50) in rat, Lichtfield and Wilcoxon; conditions: in vivo, 14 days observation, read-out: DL50
Excerpt: (§1) The characteristics of high activity and of practical absence of side effects have been evaluated by studying the acute toxicity, the activity on indomethacin-induced ulcers, on gastric secretion, on histamine-inducedgastric hyperacidity, and on H2 --receptors of isolated uterus of guinea pig.
(§2) The acute toxicity has been studied on male and female mice of Swiss strain, and on albino male and female rats of Wistar strain, by administering the active principle by the oral way, by intravenous way, and by intramuscular way.
(§3) For each administering way envisaged, doses in geometrical progression have been tested.
(§4) At the end of the observation time period of 14 days, the LD50 and the related fiducial limits have been computated according to the method by Licthfield and Wilcoxon [Pharmacol. Exp. Theor., 118, 96-99 (1949)].

[2] = tested on: gastric secretion induced by histamine; test: Anti-H2 activity, gastric secretion in rats in vivo induced by histamine; set-up: species or system rat; conditions: 50 mg/kg i.p.; for pH variation from the beginning of the treatment / Area: mean ± ES; for Area: control 184.93, *p ≤ 0.01, **p ≤ 0.01
Method: Anti-H2 activity. Gastric secretion in rats in vivo induced by histamine. The anti-secretory activity has been studied by the method by Gosh, M. N., Schild, M. O. [Brit. J. Pharmacol., 13, 54 (1958)]. | Antihistaminic anti-H2 activity, gastric secretion in rats, in vivo, | induced by histamine. | Histamine perfused into vein 200 μg/kg/min at the flow rate of 0.1 | ml/min. | Perfusion of stomach with 0.00025 N NaOH at the flow rate of 1 | ml/min.

[3] = target: T1, H2-receptors (Rattus norvegicus, UniProt P25102); test: Antagonism to histamine in isolated uterus of female rat under estrus; conditions: for Relaxation with histamine 10^-2 g/l, after the administration / Relaxation with histamine 10^-2 g/l, Δ: basal value 11.5
T1 construct: functional antagonism of histamine-induced relaxation

[4] = tested on: indomethacin-induced ulcers; test: Anti-ulcer activity, indomethacin-induced ulcers in rat; type: in vivo; conditions: 25 mg/kg p.o.; for Inhibition percentage (ulcer): relative to control; for mm of ulcer: control 18.4
Excerpt: This activity has been evaluated by using the method of indomethacin-induced ulcers in rat [Bhargava, K. P., Gupta M. B. and Tangri, K. K.: European J. of Pharmacology, 22, 191-195 (1973)].
The product has been administered as dissolved in carboxymethylcellulose at 0.2% and Tween 80 at 1% concentration.

[5] = Acute toxicity (LD50) in mouse, Lichtfield and Wilcoxon; conditions: in vivo, 14 days observation
Excerpt: as §1, §2, §3, §4

[6] = tested on: gastric secretion; test: Therapeutical activity, overall statement; conditions: in vivo
[7] = tested on: mice and rats; test: Acute toxicity, overall comparison (mouse and rat); type: in vivo; conditions: whole of the data of Table 1
Excerpt: as §1, §2, §3, §4

[8] = im, intramuscular administering
[9] = im, intramuscular administering, read-out: DL50
[10] = intravenous administering, read-out: DL50
[11] = oral administering, read-out: DL50 (95 fiducial limits)

T1 sequence (P25102 whole entry): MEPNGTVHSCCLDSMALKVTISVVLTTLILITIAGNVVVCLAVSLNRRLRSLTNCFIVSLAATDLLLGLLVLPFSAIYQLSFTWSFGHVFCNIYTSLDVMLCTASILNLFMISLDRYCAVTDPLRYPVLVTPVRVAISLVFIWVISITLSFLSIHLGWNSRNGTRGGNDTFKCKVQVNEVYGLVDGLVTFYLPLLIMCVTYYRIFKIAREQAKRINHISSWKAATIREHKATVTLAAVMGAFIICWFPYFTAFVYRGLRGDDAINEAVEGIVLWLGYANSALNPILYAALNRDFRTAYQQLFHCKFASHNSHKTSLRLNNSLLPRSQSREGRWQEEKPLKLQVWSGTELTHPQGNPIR

CNC(=C[N+](=O)[O-])NCCSCc1ccc(CN(C)C)o1 [Ranitidine, ranitidine]
LD50 at 336 h [1, 8]: 2020 mg/kg | LD50 at 336 h ([1]; intravenous administering): 93 mg/kg | LD50 at 336 h ([1]; oral administering): > 5000 mg/kg | pH variation from the beginning of the treatment ([2]; 0 min): 8.80 pH | % Δ (percent increase of area relatively to the control) [2]: 45.47% | Area [2]: 269.02 mm^2 | pH variation from the beginning of the treatment ([2]; 5 min): 6.12 pH | pH variation from the beginning of the treatment ([2]; 10 min): 4.06 pH | pH variation from the beginning of the treatment ([2]; 15 min): 4.06 pH | pH variation from the beginning of the treatment ([2]; 20 min): 4.28 pH | pH variation from the beginning of the treatment ([2]; 25 min): 4.48 pH | pH variation from the beginning of the treatment ([2]; 30 min): 4.67 pH | pH variation from the beginning of the treatment ([2]; 35 min): 4.89 pH | pH variation from the beginning of the treatment ([2]; 40 min): 5.16 pH | pH variation from the beginning of the treatment ([2]; 45 min): 5.33 pH | pH variation from the beginning of the treatment ([2]; 50 min): 5.40 pH | pH variation from the beginning of the treatment ([2]; 55 min): 5.57 pH | pH variation from the beginning of the treatment ([2]; 60 min): 5.69 pH | Relaxation with histamine 10^-2 g/l, after the administration ([3]; 5 × 10^-3 g/l, N° 5): 3 | Relaxation with histamine 10^-2 g/l, Δ ([3]; 5 × 10^-3 g/l, N° 5): 8.5 | inhibition at 5 µg/mL ([3]; rat, read-out: Inhibition percentage (relaxation with histamine 10^-2 g/l)): 73.9% | Inhibition percentage (ulcer) [4]: 84.2 percentage | mm of ulcer [4]: 2.9 mm | LD50 at 336 h [5, 9]: 280 mg/kg | LD50 at 336 h [5, 10]: 80 mg/kg | LD50 at 336 h [5, 11]: 1700 mg/kg

CN(C)Cc1ccc(CSCCNC(=C[N+](=O)[O-])N2CCN(C)CC2)o1 [Methylpiperazino-ranitidine, 1-N-[2-[[5-[(dimethylamino)-methyl]-furfuryl]-thio]-ethyl]-amino-1-[4-methylpiperazino]-2-nitroethene]
LD50 at 336 h [1, 8]: 2000 mg/kg | LD50 at 336 h ([1]; intravenous administering): 110 mg/kg | LD50 at 336 h ([1]; oral administering): 5500 mg/kg | pH variation from the beginning of the treatment ([2]; 0 min): 8.68 pH | % Δ (percent increase of area relatively to the control) [2]: 32.84% | action prolonged in time, pH value from the 35th to the 60th minute [2]: from the 35th to the 60th minute the pH value remains nearly constant | Area [2]: 245.67 mm^2 | pH variation from the beginning of the treatment ([2]; 5 min): 7.21 pH | pH variation from the beginning of the treatment ([2]; 10 min): 5.85 pH | pH variation from the beginning of the treatment ([2]; 15 min): 4.62 pH | pH variation from the beginning of the treatment ([2]; 20 min): 4.43 pH | pH variation from the beginning of the treatment ([2]; 25 min): 4.39 pH | pH variation from the beginning of the treatment ([2]; 30 min): 4.27 pH | pH variation from the beginning of the treatment ([2]; 35 min): 4.06 pH | pH variation from the beginning of the treatment ([2]; 40 min): 4.05 pH | pH variation from the beginning of the treatment ([2]; 45 min): 3.97 pH | pH variation from the beginning of the treatment ([2]; 50 min): 3.92 pH | pH variation from the beginning of the treatment ([2]; 55 min): 3.99 pH | pH variation from the beginning of the treatment ([2]; 60 min): 3.95 pH | therapeutical activity compared with ranitidine [6]: practically overlapping to that of ranitidine | Relaxation with histamine 10^-2 g/l, after the administration ([3]; 6.75 × 10^-3 g/l, N° 5): 2.5 | Relaxation with histamine 10^-2 g/l, Δ ([3]; 6.75 × 10^-3 g/l, N° 5): 9 | inhibition at 6.75 µg/mL ([3]; rat, 6.75 × 10^-3 g/l, N° 5, read-out: Inhibition percentage (relaxation with histamine 10^-2 g/l)): 78.2% | anti-ulcer activity compared with ranitidine [4]: same anti-ulcer activity as ranitidine | Inhibition percentage (ulcer) [4]: 85.9 percentage | mm of ulcer [4]: 2.6 mm | LD50 at 336 h [5, 9]: 300 mg/kg | LD50 at 336 h [5, 10]: 120 mg/kg | LD50 at 336 h [5, 11]: 2610 mg/kg | toxicity compared with ranitidine [7]: constantly results less toxic than ranitidine
